Results reported in US9326984B2, “Compounds and pharmaceutical compositions for treating disorders associated with the 5-HT1A and 5-HT2A receptors” (priority 2010, dated 2016).
One block for each molecule: values may come before it.

Columns and labels:
5-HT1A receptors = biological target: T1, 5-HT1A receptors (Rattus norvegicus, UniProt P19327); assay: In vitro affinity (radioligand binding inhibition) assay, 3[H]-8-OH-DPAT, rat hippocampus; conditions: for inhibition at 0.03 µM: 30 nM; for inhibition at 0.03 µM / inhibition at 0.1 µM / inhibition at 0.3 µM / IC50: rat hippocampus; for inhibition at 0.03 µM / inhibition at 0.1 µM / inhibition at 0.3 µM: read-out: 5-HT1A Inhibition Percentage; for inhibition at 0.1 µM: 100 nM; for inhibition at 0.3 µM: 300 nM; for IC50: 3[H]-8-OH-DPAT 1 nM, 3-3000 nM in duplicate, read-out: 5-HT1A CI50; for 5-HT1A CI50 compared with the comparative compound: comparison in words/fold versus Flibanserin; for 5-HT2A/5-HT1A CI502A/CI501A: ratio of CI50 5-HT2A to CI50 5-HT1A
T1 construct: The assay tissue was rat hippocampus; from tissue; host or cells: rat hippocampus
T1 sequence (P19327 1-422): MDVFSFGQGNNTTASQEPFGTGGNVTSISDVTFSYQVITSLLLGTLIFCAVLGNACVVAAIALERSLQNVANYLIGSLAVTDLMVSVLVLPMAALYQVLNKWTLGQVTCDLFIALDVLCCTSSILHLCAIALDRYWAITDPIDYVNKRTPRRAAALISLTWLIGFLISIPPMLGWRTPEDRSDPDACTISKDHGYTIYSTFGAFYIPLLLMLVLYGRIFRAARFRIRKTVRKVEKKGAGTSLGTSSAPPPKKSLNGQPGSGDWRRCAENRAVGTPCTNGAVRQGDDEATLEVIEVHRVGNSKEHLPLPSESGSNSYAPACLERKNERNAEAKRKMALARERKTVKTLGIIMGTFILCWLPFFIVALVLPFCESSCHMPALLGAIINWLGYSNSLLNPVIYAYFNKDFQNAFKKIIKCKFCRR
Protocol: (§1) The determination of the activity of the synthesized compounds was conducted through assays assessing affinity with the 5-HT1A and 5-HT2A serotonin receptors. The assays used are based on the binding ratings of the substances being tested at different concentrations, compared to the affinity in the single concentration of the radioligands (markers) that have a specific affinity for these receptors.
(§2) These assays, known as binding assays and also known as inhibition experiments, are able to determine the affinity of a substance through the receptor, provided that this substance is soluble under the assay conditions.
(§3) In an inhibition experiment, the quantity of an inhibitor substance (non radioactive—sample or compound being tested) included in the incubation is the only variable, meaning that it is possible to determine for each test drug concentration, the binding inhibition percentage of the radioligand.
(§4) CI50 is a value defined as the concentration of an unbranded substance (test sample) required to inhibit the specific binding of the radioligand in 50% of the receptors.
(§5) The affinity assays with the 5-HT1A and 5-HT2A receptors of the compounds addressed by this invention were conducted by the Biochemical and Molecular Pharmacology Laboratory at the Biomedical Science Institute in Rio de Janeiro Federal University (UFRJ), using its own protocols.
(§6) […] The development of the experiment protocol to assess compounds with affinity for the 5-HT1A receptors was developed on the basis of the experiments conducted by Hall et al (Journal of Neurochemistry (1985) 44: 1685-1696); Mongeau et al (Brain Research (1992) 590: 229-238) and Peroutka (Journal of Neurochemistry (1986) 47: 529-540). The 5-HT2A receptors were based on the studies conducted by Johnson et al (Naunyn-Schmiedeberg's Arch. Pharmacol. (1996) 354 (2): 205-209); Leysen et al (Molecular Pharmacology (1982) 21: 301-314) and Nelson et al (Journal of Pharmacology and Experimental Therapeutics (1993) 265: 1272-1279).
The affinity with the 5-HT1A receptors was assayed by using 3[H]-8-OH-DPAT (3[H]-8-hydroxy-N,N-dipropyl-2-aminotetraline) (1 nM) as a ligand, and 5-HT (5-hydroxytiptamine-serotonin) (10 μM) as a non-specific ligand. The assay tissue was rat hippocampus.
(§7) In order to determine the affinity with the 5-HT2A receptors, 3[H]-ketanserin (1 nM) was used as a ligand and ketanserin (1 μM) as a non-specific ligand. The assay tissue was rat cortex. Table 1 below summarizes the CI50 values obtained for the inventive compounds presented in Examples 1 and 8. In order to determine the CI50 of these compounds, the inhibition assays were conducted using the compounds at concentrations of 3, 10, 30, 100, 300, 1000 and 3000 nM (in duplicate) for both receptors.

5-HT2A receptors = biological target: T2, 5-HT2A receptors (Rattus norvegicus, UniProt P14842); assay: In vitro affinity (radioligand binding inhibition) assay, 3[H]-ketanserin, rat cortex; conditions: for inhibition at 0.3 µM / inhibition at 1 µM / inhibition at 3 µM: read-out: 5-HT2A Inhibition Percentage; for IC50: 3[H]-ketanserin 1 nM, rat cortex, 3-3000 nM in duplicate, read-out: 5-HT2A CI50; for 5-HT2A CI50/affinity compared with the comparative compound: comparison in words versus Flibanserin (and Example 1)
T2 construct: The assay tissue was rat cortex; from tissue; host or cells: rat cortex
T2 sequence (P14842 whole entry): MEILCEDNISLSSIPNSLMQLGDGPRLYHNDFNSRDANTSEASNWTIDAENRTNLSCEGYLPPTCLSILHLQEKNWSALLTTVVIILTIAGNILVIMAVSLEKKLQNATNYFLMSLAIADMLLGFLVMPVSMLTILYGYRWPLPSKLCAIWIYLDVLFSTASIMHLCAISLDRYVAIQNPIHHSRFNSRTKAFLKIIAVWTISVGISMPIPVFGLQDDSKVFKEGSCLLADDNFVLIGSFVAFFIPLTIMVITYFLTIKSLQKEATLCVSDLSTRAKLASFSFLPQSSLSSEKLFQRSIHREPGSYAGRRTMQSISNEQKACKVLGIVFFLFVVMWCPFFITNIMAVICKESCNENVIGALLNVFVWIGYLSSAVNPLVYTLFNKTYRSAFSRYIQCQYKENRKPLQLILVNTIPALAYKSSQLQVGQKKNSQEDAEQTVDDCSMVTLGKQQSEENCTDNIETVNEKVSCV
Protocol: as §1, §2, §3, §4, §5, §6, §7

5-HT receptors = assay: In vivo efficacy test: Serotonin Syndrome Model in rats (modified Irwin method); parameters: species or system rat; conditions: 15 mg/kg intraperitoneal, observed 15, 30 and 60 minutes after administration
Protocol: For the efficacy assay, the compounds addressed by this invention were submitted to the modified Irwin assay. The assays were conducted by Porsolt, using a specific protocol for evaluation.
In order to determine the in vivo efficacy of the compounds addressed by this invention, the Serotonin Syndrome Model in rats was used. The model was based in the Irwin method (Psychopharmacologia (1968), 13: 222-257), adapted to assess the effects of seroton agonists pursuant to Martin et al (Journal of Pharmacol. Meth. (1985), 13: 193-200) and Ortman et al (Naunyn-Schmiedeberg's Arch. Pharmacol (1981), 316: 225-230).
Two animals from each group were assessed through a series of separate observations. Escitalopram was used as the positive control for the study.
Behavioral and physiological alterations as well as neurotoxicity symptoms, rectal temperature and pupil diameter were recorded.
Additionally, the specific signs related to the stimulation of the 5-HT receptors were observed and quantified, being: head twitches (HT), fore paw treading (FPT), flat body posture (FBP), hind limb splay (HLS), lower lip retraction (LLR) and spontaneous tail flicks (STF) (Straub).
The observations were conducted at 15, 30 and 60 minutes after administration of the compounds being tested.
The compounds were tested as set forth in Examples 1 and 7. As the comparative compound 1,3-dihydro-1-(2-(4-(3-(trifluoromethyl)phenyl)-1-piperazinyl)ethyl)-2H-benzimidizol-2-one (Flibanserin) was used. All the compounds were administered at a dose of 15 mg/kg, intraperitoneal.
The observations of the specific stimulation data of the 5-HT receptors by each compound are presented in the graph given in FIG. 1.

Compound: CCc1nc2ccccc2c(=O)n1CCN1CCN(c2ccccc2Cl)CC1 [Example 11, 3-(2-(4-(2-chlorophenyl)piperazine-1-yl)ethyl)-2-ethylquinazoline-4 (3H)-one]
inhibition at 0.03 µM (5-HT1A receptors): 5%
inhibition at 0.1 µM (5-HT1A receptors): 26%
inhibition at 0.3 µM (5-HT1A receptors): 38%
inhibition at 0.3 µM (5-HT2A receptors): 25%
inhibition at 1 µM (5-HT2A receptors): 52%
inhibition at 3 µM (5-HT2A receptors): 79%

Compound: CCc1nc2ccccc2c(=O)n1CCN1CCN(c2cccc(C(F)(F)F)c2)CC1 [Example 7, 2-ethyl-3-(2-(4-(3-(trifluoromethyl)phenyl)piperazine-1-yl)ethyl)quinazoline-4 (3H)-one]
IC50 (5-HT1A receptors): 253 nM
5-HT1A CI50 compared with the comparative compound (5-HT1A receptors): five times greater
5-HT2A/5-HT1A CI502A/CI501A (5-HT1A receptors): 2.7
IC50 (5-HT2A receptors): 707 nM
5-HT2A CI50/affinity compared with the comparative compound (5-HT2A receptors): greater affinity than the comparison compound and the compound in Example 1
signs of stimulation of the 5-HT receptors (HT, FPT, FBP, HLS, LLR, STF) (5-HT receptors): triggered fore paw treading (FPT) and more spontaneous tail flicks (STF)

Compound: COc1ccccc1N1CCN(CCn2cnc3ccccc3c2=O)CC1 [Example 6, 3-(2-(4-(2-methoxyphenyl)piperazine-1-yl)ethyl)quinazoline-4 (3H)-one]
inhibition at 0.03 µM (5-HT1A receptors): 38%
inhibition at 0.1 µM (5-HT1A receptors): 66%
inhibition at 0.3 µM (5-HT2A receptors): 43%
inhibition at 1 µM (5-HT2A receptors): 63%

Compound: CCc1nc2ccccc2c(=O)n1CCN1CCN(c2ccccc2OC)CC1 [Example 9, 2-ethyl-3-(2-(4-(2-methoxyphenyl)piperazine-1-yl)ethyl)quinazoline-4 (3H)-one]
inhibition at 0.03 µM (5-HT1A receptors): 17%
inhibition at 0.1 µM (5-HT1A receptors): 46%
inhibition at 0.3 µM (5-HT1A receptors): 69%
inhibition at 0.3 µM (5-HT2A receptors): 13%
inhibition at 1 µM (5-HT2A receptors): 46%
inhibition at 3 µM (5-HT2A receptors): 78%

Compound: O=c1c2ccccc2ncn1CCN1CCN(c2cccc(C(F)(F)F)c2)CC1 [Example 1, 3-(2-(4-(3-(trifluoromethyl)phenyl)piperazine-1-yl)ethyl)quinazoline-4 (3H)-one]
IC50 (5-HT1A receptors): 47 nM
5-HT1A CI50 compared with the comparative compound (5-HT1A receptors): the same CI50 value as the comparative compound
5-HT2A/5-HT1A CI502A/CI501A (5-HT1A receptors): 12
IC50 (5-HT2A receptors): 570 nM
5-HT2A CI50/affinity compared with the comparative compound (5-HT2A receptors): a value slightly higher than the value obtained for the comparative compounds
signs of stimulation of the 5-HT receptors (HT, FPT, FBP, HLS, LLR, STF) (5-HT receptors): triggered spontaneous tail flicks (STF)

Compound: CCOc1ccccc1N1CCN(CCn2c(CC)nc3ccccc3c2=O)CC1 [Example 10, 2-ethyl-3-(2-(4-(2-ethoxyphenyl)piperazine-1-yl)ethyl)quinazoline-4 (3H)-one]
inhibition at 0.03 µM (5-HT1A receptors): 26%
inhibition at 0.1 µM (5-HT1A receptors): 51%
inhibition at 0.3 µM (5-HT1A receptors): 79%
inhibition at 0.3 µM (5-HT2A receptors): 8%
inhibition at 1 µM (5-HT2A receptors): 27%
inhibition at 3 µM (5-HT2A receptors): 58%

Compound: CCc1nc2ccccc2c(=O)n1CCN1CCN(c2cccc(C)c2C)CC1 [Example 8, 3-(2-(4-(2,3-dimethylphenyl)piperazine-1-yl)ethyl)-2-ethylquinazoline-4 (3H)-one]
inhibition at 0.03 µM (5-HT1A receptors): 26%
inhibition at 0.1 µM (5-HT1A receptors): 76%
inhibition at 0.3 µM (5-HT1A receptors): 77%
inhibition at 0.3 µM (5-HT2A receptors): 67%
inhibition at 1 µM (5-HT2A receptors): 86%
inhibition at 3 µM (5-HT2A receptors): 94%

Compound: Cc1cccc(N2CCN(CCn3cnc4ccccc4c3=O)CC2)c1C [Example 3, 3-(2-(4-(2,3-dimethylphenyl)piperazine-1-yl)ethyl)quinazoline-4 (3H)-one]
inhibition at 0.03 µM (5-HT1A receptors): 47%
inhibition at 0.1 µM (5-HT1A receptors): 84%
inhibition at 0.3 µM (5-HT2A receptors): 89%
inhibition at 1 µM (5-HT2A receptors): 88%

Compound: O=c1c2ccccc2ncn1CCN1CCN(c2ccccc2Cl)CC1 [Example 4, 3-(2-(4-(2-chlorophenyl)piperazine-1-yl)ethyl)quinazoline-4 (3H)-one]
inhibition at 0.03 µM (5-HT1A receptors): 22%
inhibition at 0.1 µM (5-HT1A receptors): 84%
inhibition at 0.3 µM (5-HT2A receptors): 48%
inhibition at 1 µM (5-HT2A receptors): 77%

Compound: N#Cc1ccccc1N1CCN(CCn2cnc3ccccc3c2=O)CC1 [Example 5, 3-(2-(4-(2-cyanophenyl)piperazine-1-yl)ethyl)quinazoline-4 (3H)-one]
inhibition at 0.03 µM (5-HT1A receptors): 12%
inhibition at 0.1 µM (5-HT1A receptors): 49%
inhibition at 0.3 µM (5-HT2A receptors): 38%
inhibition at 1 µM (5-HT2A receptors): 78%

IC50 (5-HT1A receptors): 47 nM
5-HT2A/5-HT1A CI502A/CI501A (5-HT1A receptors): 9.6
IC50 (5-HT2A receptors): 453 nM
Compound: O=c1[nH]c2ccccc2n1CCN1CCN(c2cccc(C(F)(F)F)c2)CC1 [Comparative Compound, 1.3-Dihydro-1-(2-(4-(3-(trifluoromethyl)phenyl)-1-piperazinyl)ethyl)-2H-benzimidizol-2-one, reference compound]
signs of stimulation of the 5-HT receptors (HT, FPT, FBP, HLS, LLR, STF) (5-HT receptors): only one presented signs of stimulation of the 5-HT receptors, which were spontaneous tail flicks

Compound: Cc1ccccc1N1CCN(CCn2cnc3ccccc3c2=O)CC1 [Example 2, 3-(2-(4-o-tolylpiperazine-1-yl)ethyl)quinazoline-4 (3H)-one]
inhibition at 0.03 µM (5-HT1A receptors): 21%
inhibition at 0.1 µM (5-HT1A receptors): 51%
inhibition at 0.3 µM (5-HT2A receptors): 61%
inhibition at 1 µM (5-HT2A receptors): 82%
